± gives the expanded uncertainty stated by the source.
Columns and labels:
[1] = 101 kPa, Liquid; for speed of sound: Sing-around technique in a fixed-path interferometer; for mass density: Vibrating tube method
[2] = xn = mol fraction of the nth substance listed; details: 101 kPa, Liquid; for speed of sound: Sing-around technique in a fixed-path interferometer; for mass density: Vibrating tube method

C1CCOCC1 [tetrahydropyran]
[1]
Details	mass density [kg/m3]	speed of sound [m/s]
298.15 K	879.136 ± 0.7	1269.9 ± 2.9
303.15 K	873.992 ± 0.7	1246.8 ± 2.9
308.15 K	868.831 ± 0.69	1224.5 ± 2.9

Cc1ccccc1N [2-methylaniline]
[1]
Details	mass density [kg/m3]	speed of sound [m/s]
298.15 K	994.351 ± 0.23	1602.6 ± 2.4
303.15 K	990.224 ± 0.45	1577.8 ± 2.6
308.15 K	986.069 ± 0.23	1558.4 ± 2.4

CNC=O [N-methylformamide]
[1]
Details	mass density [kg/m3]	speed of sound [m/s]
298.15 K	999.004 ± 0.84	1432.9 ± 2.9
303.15 K	994.653 ± 0.83	1417.7 ± 2.9
308.15 K	990.302 ± 0.83	1402.5 ± 2.9

C1CCOCC1 [tetrahydropyran] + CNC=O
[2], x1 = 1
Details	mass density [kg/m3]	speed of sound [m/s]
298.15 K	879.136 ± 0.7	1269.9 ± 2.9
303.15 K	873.992 ± 0.7	1246.8 ± 2.9
308.15 K	868.831 ± 0.69	1224.5 ± 2.9

CNC=O [N-methylformamide] + Cc1ccccc1N
[2], x2 = 0
Details	mass density [kg/m3]	speed of sound [m/s]
298.15 K	999.004 ± 0.84	1432.9 ± 2.9
303.15 K	994.653 ± 0.83	1417.7 ± 2.9
308.15 K	990.302 ± 0.83	1402.5 ± 2.9

C1CCOCC1 [tetrahydropyran] + Cc1ccccc1N
[2], x2 = 0
Details	mass density [kg/m3]	speed of sound [m/s]
298.15 K	879.136 ± 0.7	1269.9 ± 2.9
303.15 K	873.992 ± 0.7	1246.8 ± 2.9
308.15 K	868.831 ± 0.69	1224.5 ± 2.9
